Article PMC11540844, “Enhancing transcription–replication conflict targets ecDNA-positive cancers” (Nature, 2024)
Where “and” joins values, the source holds several entries; their conditions need not be identical. Equal entries are not always repeated. Where two headings read alike, the source gives them in different places.

Legend:
[1] = system: FGFR2 copy number in SNU16 cells; assay: qPCR quantification of FGFR2 oncogene number in SNU16 cells; type: cell-based, human; conditions: 8.0 weeks of infigratinib
Excerpt: (§1) Nuclear staining is illustrated using DAPI (blue). […] Scale bar represents 10 µm. (b) Timeline of experimental overview. […] Lane 1 (control) is from a non-contiguous portion of the gel from lanes 2 and 3 (infigratinib treated samples).

SNU16 cells = assay: Cell viability (CellTiter-Glo); type: cell-based, human; conditions: for 3-day Cell Titer Glo relative signal (Source data Ext Fig 10b): Control SNU16, replicates; for IC50: Homo sapiens
Method: Cell viability assay was performed using CellTiter-Glo (Promega, catalgoue no. G8461) as previously described. Briefly, cells were seeded into a 384-well plate one day before adding inhibitors. Equal volumes of vehicles or drugs diluted at indicated concentration were added into each well the next day, and the cells were incubated for three days. On the third day, after equilibrating plate and CellTiter-Glo reagent at room temperature for 30 min, reagent was added into each well and incubated for 15 min at room temperature. Luminescence was measured using a Synergy 2 microplate reader. Four biological replicates were performed for each condition. Data analysis was performed with GraphPad Prism (v.9.1.0). […]

[2] = system: infigratinib-resistant SNU16 cells; assay: 3-day Cell Titer Glo in SNU16 cells after 8 weeks of infigratinib; type: cell-based, human; conditions: for 3-day Cell Titer Glo relative signal (Source data Ext Fig 10b): infi-intermed 8 wk SNU16, replicates
Excerpt: as §1

SNU16 xenograft tumours = assay: SNU16 xenograft tumour model, tumour volume; type: in vivo, mice; conditions: for tumour volume, individual mice: Infigratinib 15 mg/kg PO QD
Method: Animal experiments were performed in accordance with protocols approved by the Charles River Accelerator and Development Lab (CRADL) Institutional Animal Care and Use Committee (protocol no. EB17-010-066). Mice were socially housed in individually ventilated cages on a 12/12 h light/dark cycle with temperatures between 65 and 75 °F and 30–50% humidity. The SNU16 gastric cancer cell line was purchased from ATCC (catalogue no. CRL5974) and maintained in Roswell Park Memorial Institute growth medium (Gibco, catalogue no. 22400-089) supplemented with 10% FBS (Omega Scientific, catalogue no. FB-02). To establish tumours, 1 × 10^6 SNU16 cells in 200 µl of a 1:1 mixture of PBS and Matrigel (Corning, catalogue no. 354234) were given by subcutaneous injection into the right flank of 9-week-old female severe combined immunodeficient beige mice (Envigo, strain code 186). Tumour measurements were taken two to three times per week and body weights were taken daily. Tumour volume measurements were obtained using digital calipers and tumour volumes (mm^3) were determined using the formula: tumour volume = (L × W2)/2, where L is the length/largest tumour diameter and W is the width/shortest tumour diameter, with all tumours collected before reaching 1,500 mm^3. Animals (eight mice per group, which historically allowed for significance determination between vehicle and infigratinib) were randomly assigned to unblinded treatment with vehicle, infigratinib (15 mg kg^−^1 oral (PO) once-daily (QD)), BBI-2779 (30 mg kg^−^1 PO every other day (Q2D)) or the combination of BBI-2779 and infigratinib once average tumour volume was 285 (±10)/mean (±s.e.m.) mm^3. One vehicle tumour was taken down on day 22; the mouse was sacrificed due to large tumour volume. Infigratinib was formulated in a 1:1 mixture of sodium acetate buffer, pH 4.6 and polyethylene glycol 300. BBI-2779 was formulated in 0.5% methylcellulose (Sigma-Aldrich, catalogue no. M0512) and 0.2% Tween 80 (AG Scientific, catalogue no. T-2835) in HyPure Molecular Biology Grade Water (HyClone, catalogue no. SH30538.02). […] Animals were sacrificed 6 h, 24 h or 36 h after the last dose, and tumours were collected for western blot or copy number analysis.

FGFR2 copy number = FGFR2 copy number by qPCR on xenograft tumour DNA; type: in vivo, mice; conditions: infigratinib 15 mg kg-1 PO QD
Method: For copy number analysis, tumours were cut into 10–20 mg pieces and flash-frozen in liquid nitrogen. DNA was extracted using the QIAcube DNA Extraction Kit (Qiagen, no. 51331). Briefly, a mixture of buffer ATL and proteinase K was added to the frozen tumour pieces, and they were set out to equilibrate to room temperature. Tumours were then vortexed for 30 s and placed into an incubator at 56 °C to digest overnight. The next morning, an additional 150 μl of buffer ATL was added and samples vortexed for an additional 30 s to reduce the viscosity of the samples before transfer to the S block. Qiagen protocol for the 96 QIAcube HT was followed for the remainder of the DNA isolation. Purified DNA was quantified for the presence of double-stranded DNA on the QIAxpert (Qiagen, catalogue no. 9002340). The DNA was diluted to 5 ng µl^−^1 (5× working stock) in RNase/DNase free water (Thermo Fisher Scientific, catalogue no. 10977015) and 2 µl was loaded into a 384-well plate. […]

- IC50 (SNU16 cells; SNU-16, 72 h, control SNU16 cells, 3-day Cell Titer Glo, Extended Data Fig. 10b, read-out: "IC50" control): 7.85 nM
- IC50 (SNU16 cells; SNU-16, SNU16 cells, Extended Data Fig. 10, read-out: IC50 (EC50 dose used for 8 weeks of treatment)): 25 nM
- IC50 ([2]; Homo sapiens, SNU-16, SNU16 after 8 weeks of infigratinib, 3-day Cell Titer Glo): 30.1 nM
Structure (SMILES): CCN1CCN(c2ccc(Nc3cc(N(C)C(=O)Nc4c(Cl)c(OC)cc(OC)c4Cl)ncn3)cc2)CC1 [infigratinib]
- FGFR2 CN [1]: 332.123
- 3-day Cell Titer Glo relative signal (Source data Ext Fig 10b) (SNU16 cells; 0.152416 nM infigratinib): 1.0456 and 1.0233
- 3-day Cell Titer Glo relative signal (Source data Ext Fig 10b) (SNU16 cells; 0.457247 nM infigratinib): 0.9513 and 0.976
- 3-day Cell Titer Glo relative signal (Source data Ext Fig 10b) (SNU16 cells; 1.37174 nM infigratinib): 0.9221 and 0.9386
- 3-day Cell Titer Glo relative signal (Source data Ext Fig 10b) (SNU16 cells; 4.11523 nM infigratinib): 0.7516 and 0.791
- 3-day Cell Titer Glo relative signal (Source data Ext Fig 10b) (SNU16 cells; 12.3457 nM infigratinib): 0.4353 and 0.4209
- 3-day Cell Titer Glo relative signal (Source data Ext Fig 10b) (SNU16 cells; 37.037 nM infigratinib): 0.1753 and 0.1537
- 3-day Cell Titer Glo relative signal (Source data Ext Fig 10b) (SNU16 cells; 111.111 nM infigratinib): 0.1409 and 0.1325
- 3-day Cell Titer Glo relative signal (Source data Ext Fig 10b) (SNU16 cells; 333.333 nM infigratinib): 0.1569 and 0.1376
- 3-day Cell Titer Glo relative signal (Source data Ext Fig 10b) (SNU16 cells; 1000 nM infigratinib): 0.1554 and 0.1292
- 3-day Cell Titer Glo relative signal (Source data Ext Fig 10b) ([2]; 0.152416 nM infigratinib): 0.9851 and 1.028
- 3-day Cell Titer Glo relative signal (Source data Ext Fig 10b) ([2]; 0.457247 nM infigratinib): 1.032 and 1.122
- 3-day Cell Titer Glo relative signal (Source data Ext Fig 10b) ([2]; 1.37174 nM infigratinib): 1.185 and 1.134
- 3-day Cell Titer Glo relative signal (Source data Ext Fig 10b) ([2]; 4.11523 nM infigratinib): 1.087 and 1.319
- 3-day Cell Titer Glo relative signal (Source data Ext Fig 10b) ([2]; 12.3457 nM infigratinib): 1.111 and 1.106
- 3-day Cell Titer Glo relative signal (Source data Ext Fig 10b) ([2]; 37.037 nM infigratinib): 0.3322 and 0.3782
- 3-day Cell Titer Glo relative signal (Source data Ext Fig 10b) ([2]; 111.111 nM infigratinib): 0.158 and 0.1671
- 3-day Cell Titer Glo relative signal (Source data Ext Fig 10b) ([2]; 333.333 nM infigratinib): 0.14 and 0.158
- 3-day Cell Titer Glo relative signal (Source data Ext Fig 10b) ([2]; 1000 nM infigratinib): 0.1637 and 0.1685
- tumour volume, individual mice (SNU16 xenograft tumours; day of study 1): 275.78 mm^3 and 318.63 mm^3 and 234.6 mm^3 and 333.76 mm^3 and 272.35 mm^3 and 399.19 mm^3 and 215.35 mm^3 and 244.48 mm^3
- tumour volume, individual mice (SNU16 xenograft tumours; day of study 5): 207 mm^3 and 207.01 mm^3 and 194.06 mm^3 and 114.59 mm^3 and 223.51 mm^3 and 272.2 mm^3 and 162.32 mm^3 and 141.42 mm^3
- tumour volume, individual mice (SNU16 xenograft tumours; day of study 8): 138.07 mm^3 and 126.44 mm^3 and 146.81 mm^3 and 70.82 mm^3 and 180.25 mm^3 and 231.85 mm^3 and 107.33 mm^3 and 100.66 mm^3
- tumour volume, individual mice (SNU16 xenograft tumours; day of study 11): 156.25 mm^3 and 176.04 mm^3 and 166.7 mm^3 and 123.46 mm^3 and 218.18 mm^3 and 282.27 mm^3 and 116.93 mm^3 and 111.73 mm^3
- tumour volume, individual mice (SNU16 xenograft tumours; day of study 13): 172.17 mm^3 and 176.87 mm^3 and 188.21 mm^3 and 133.63 mm^3 and 270.33 mm^3 and 330.51 mm^3 and 108.35 mm^3 and 124.21 mm^3
- tumour volume, individual mice (SNU16 xenograft tumours; day of study 15): 126.09 mm^3 and 205.17 mm^3 and 263.36 mm^3 and 166 mm^3 and 337.92 mm^3 and 367.94 mm^3 and 166.72 mm^3 and 154.6 mm^3
- tumour volume, individual mice (SNU16 xenograft tumours; day of study 18): 157.95 mm^3 and 204.33 mm^3 and 255.64 mm^3 and 193.27 mm^3 and 380.93 mm^3 and 448.61 mm^3 and 202.33 mm^3 and 176.11 mm^3
- tumour volume, individual mice (SNU16 xenograft tumours; day of study 20): 165.11 mm^3 and 203.59 mm^3 and 221.67 mm^3 and 192.93 mm^3 and 417.82 mm^3 and 479.35 mm^3 and 231.86 mm^3 and 168.05 mm^3
- tumour volume, individual mice (SNU16 xenograft tumours; day of study 22): 223.01 mm^3 and 251.01 mm^3 and 223.64 mm^3 and 246.07 mm^3 and 397.26 mm^3 and 479.73 mm^3 and 254.62 mm^3 and 184.76 mm^3
- tumour volume, individual mice (SNU16 xenograft tumours; day of study 25): 231.38 mm^3 and 244.62 mm^3 and 333.8 mm^3 and 257.4 mm^3 and 426.98 mm^3 and 499.94 mm^3 and 237.29 mm^3 and 196.21 mm^3
- tumour volume, individual mice (SNU16 xenograft tumours; day of study 27): 227.44 mm^3 and 236.39 mm^3 and 325 mm^3 and 271.28 mm^3 and 505.17 mm^3 and 681.55 mm^3 and 273.5 mm^3 and 238.76 mm^3
- mean per cent tumour growth inhibition (SNU16 xenograft tumours; infigratinib 15 mg kg^−1 PO QD, day 25, vs vehicle, P < 0.0005): 97%
- FGFR2 copy number by qPCR on tumour DNA, individual tumours (FGFR2 copy number): 356.837 and 338.53 and 324.931 and 257.5 and 276.141 and 331.223 and 308.687 and 333.495
